Results: patent publication US6051557A, “Methods of enhancing functioning of the upper gastrointestinal tract” (1149336 Ontario Inc., priority 1998, dated 2000)

Key:
Assay type in all cases: in vivo
stomach = stomach mass after oral administration in drinking water; details: female CD1 mice, approx. 100 μg per day in drinking water, 12 days, p<0.05 vs normal drinking water
Procedure: In this experiment, the effect of GLP-2 on the stomach mass was examined. Female CD1 mice (6 weeks old) were treated with human [[…] ]GLP-2 by oral administration in drinking water. The drinking water contained 4.3 μg/ml of human [[…] ]GLP-2 and was prepared fresh daily. Each mouse received approximately 100 μg of human [[…] ]GLP-2 per day. Following 12 days of treatment the mice were fasted for 24 hours, anesthetized with CO2 and sacrificed. The stomach of each mouse was removed and weighed.

esophagus = test: total protein content of mouse esophagus (modified Bradford assay); details: female CD1 mice, 2.5 ug s.c. twice daily for 10 days, vs PBS
Procedure: In this experiment, the effect of human [Gly^2 ]GLP-2 on protein synthesis in the mouse esophagus was examined. Female CD1 mice (6 weeks old) were housed and fed as described in Example 1. Two groups of mice (n=5 per group) were treated twice daily (subcutaneously) with either 0.5 ml PBS alone (control) or 2.5 ug in 0.5 ml PBS for 10 days. Following treatment, mice were anesthetized with CO2 and sacrificed for analysis. One (1) cm segments of esophagus tissue, between 2-4 cm proximal to the gastroduodenal junction, were harvested for analysis of total cellular protein. The 1 cm esophageal segments were placed in 1 ml of PBS and homogenized using a Polytron. Aliquots of the homogenate were taken for protein determination of protein content using the modified Bradford assay (BIORAD).

[1] = tested on: mucosal epithelium and muscle layer of the esophagus; test: BrdU cell proliferation in mouse esophagus; details: female CD1 mice, 2.5 μg s.c. twice daily, 50 hr period, vs PBS
Excerpt: In this experiment, the effect of GLP-2 on cell proliferation of the mucosal epithelium and muscle layer of the esophagus was examined.
Female CD1 mice (6 weeks of age, approx. 25 g, Charles River) were housed in plastic bottom, wire lid cages and maintained on a 12 hr light/dark cycle and allowed chow and water ad libitum. The mice were weighed using a Mettler PJ300 scale and randomly allocated to either the control group (phosphate buffer saline injection ("PBS")) or the treatment group (human [Gly^2 ]GLP-2 injection). Each control or treatment group consisted of 2 mice housed together in 1 cage.
The female CD1 mice were treated (subcutaneously) with either human [Gly^2 ]GLP-2 2.5 μg or PBS alone, twice daily (8 a.m. and 6 p.m.) for 2 days prior to the bromodeoxyuridine ("BrdU") injection (50 ug/g body weight, in 0.5 ml). The mice received a total of 5 injections of either human [Gly^2 ]GLP-2 or saline over the previous 50 hours. Mice were fasted 21 hours before sacrifice. The mice were sacrificed 2 hours after receiving the BrdU injection. Upon sacrifice, sections of distal esophagus (the last 2 cm of esophagus adjacent to the gastroduodenal junction) were taken for histological analysis.
The esophageal tissues were fixed in 10% buffered formalin for over 24 hours and then placed in 70% alcohol prior to processing. […]

[2] = tested on: indomethacin induced mucosal epithelial damage; test: indomethacin induced gastroenterocolitis in mice; details: 0.75 μg s.c. twice daily
Excerpt: In this experiment, the prophylactic and therepeutic effect of GLP-2 on indomethacin induced mucosal epithelial damage was studied.
GLP-2 administration to mice and rats stimulates mucosal growth in both the small and large intestine via activation of crypt cell proliferation and inhibition of enterocyte apoptosis. To address the possibility that GLP-2 may be useful for the therapeutic and/or prophylactic treatment of mucosal epithelial damage, we have studied the use of a novel human GLP-2 analog, h[Gly^2 ]-GLP-2, in mice with experimental indomethacin induced gastroenterocolitis.
Six to eight week old female CD1 mice (approximately 22-28 g, Charles River) were housed in plastic bottom, wire lid cages and maintained on a 12 hr light/dark cycle and allowed chow and water ad libitum throughout the study. The day prior to commencing the experiment, mice were weighed using a Mettler PJ300 scale and randomly allocated to a treatment group. Each treatment group consisted of 5 mice housed together. Subcutaneous injections of PBS or h[Gly^2 ]-GLP-2 peptide were given in the right hind quarter twice a day at 9 am and 7 pm. Injections started 4 days before indomethacin administration. Mice were fasted the night prior to receiving the first dose of indomethacin.
Mice were sacrificed between 9 am and 5 pm. […] Small and large bowel length were also measured. […]

CC[C@H](C)[C@H](NC(=O)[C@H](Cc1ccccc1)NC(=O)[C@H](CC(=O)O)NC(=O)[C@H](CCCNC(=N)N)NC(=O)[C@H](C)NC(=O)[C@H](C)NC(=O)[C@H](CC(C)C)NC(=O)[C@H](CC(N)=O)NC(=O)[C@H](CC(=O)O)NC(=O)[C@H](CC(C)C)NC(=O)[C@@H](NC(=O)[C@@H](NC(=O)[C@H](CC(N)=O)NC(=O)[C@H](CCSC)NC(=O)[C@H](CCC(=O)O)NC(=O)[C@H](CC(=O)O)NC(=O)[C@H](CO)NC(=O)[C@H](Cc1ccccc1)NC(=O)[C@H](CO)NC(=O)CNC(=O)[C@H](CC(=O)O)NC(=O)CNC(=O)[C@@H](N)Cc1c[nH]cn1)[C@@H](C)O)[C@@H](C)CC)C(=O)N[C@@H](CC(N)=O)C(=O)N[C@@H](Cc1c[nH]c2ccccc12)C(=O)N[C@@H](CC(C)C)C(=O)N[C@H](C(=O)N[C@@H](CCC(N)=O)C(=O)N[C@H](C(=O)N[C@@H](CCCCN)C(=O)N[C@H](C(=O)N[C@H](C(=O)N[C@@H](CC(=O)O)C(=O)O)[C@@H](C)O)[C@@H](C)CC)[C@@H](C)O)[C@@H](C)CC [human [Gly^2]GLP-2]
weights of the stomachs (stomach): significantly increase | protein synthesis (total protein content) in esophagus tissue (esophagus): increase | cellular proliferation of the mucosal epithelium of the esophagus (number of BrDU-positive cells) [1]: significant increases | cellular proliferation of the muscle layer of the esophagus (number of BrDU-positive cells) [1]: significant increases | majority of parameters assessed, especially markers of epithelial damage/inflammation ([2]; indomethacin-treated mice, vs saline): significantly improved | survival ([2]; treatment groups II-V, indomethacin 7 mg/kg, saline-treated controls 45-50%): 75-95%
